Experimental findings from US20180228743A1, “COMPOUNDS AND METHODS OF PROMOTING MYELINATION” (Case Western Reserve University, priority 2016, published 2018) are described below.

Counter-ions that a name gives are not always drawn. Like-named read-outs stand apart in the source and are kept apart here.

Common to all, as to assay type: cell-based, mouse
Series [1] relates to EpiSC-derived OPCs. The series is described as follows: In vitro phenotypic screening of OPCs (MBP+ oligodendrocytes at 72 h). The note with it: 72 h.
In series [2] the test system is EpiSC-derived OPCs. Put plainly: High-throughput screening of 3,000 bioactive small molecules for MBP+ oligodendrocyte formation from OPCs. The settings on record: 72 h; for % 0ligos: MBP+ oligodendrocytes; for fold induction at 2 µM: Mus musculus, read-out: fold-change in % MBP + oligodendrocytes. The text has this:
Plates were imaged on the Operetta High Content Imaging and Analysis system (PerkinElmer) and a set of 6 fields captured from each well resulting in an average of 1200 cells being scored per well. Analysis (PerkinElmer Harmony and Columbus software) began by identifying intact nuclei stained by DAPI; that is, those traced nuclei that were larger than 300 μm^2 in surface area. Each traced nucleus region was then expanded by 50% and cross-referenced with the […] (MBP) stain to identify oligodendrocyte nuclei, and from this the percentage of oligodendrocytes was calculated. In some experiments, the total process length of MBP+ oligodendrocytes was calculated as previously described.
EpiSC-derived OPCs were grown and expanded in poly-ornithine and laminin-coated flasks before harvesting for plating. Cells were dispensed in differentiation media supplemented with Noggin (R&D Systems; 100 ng/ml), Neurotrophin 3 (R&D Systems; 10 ng/ml), cAMP (Sigma; 50 μM), and IGF-1 (R&D Systems; 100 ng/ml)) using a Biotek EL406 Microplate Washer Dispenser (Biotek) equipped with 5 μL dispense cassette (Biotek), into poly-D-lysine/laminin (Sigma, L2020; 4 μg/ml)-coated sterile, 384-well, CellCarrier ultra plates (PerkinElmer), to a final density of 12,500 cells per well and allowed to attach for 45 min before addition of drug. A 3 mM stock of bioactive compound library in dimethylsulphoxide (DMSO) were prepared in an Abgene storage 384-well plate (ThermoFisher Scientific; AB1055). These were added to assay plates using a 50 nL solid pin tool attached to Janus automated workstation (Perkin Elmer), resulting in a final screening concentration of 2 μM. Cells were incubated at 37° C. for 1 hour and then T3 (Sigma; 40 ng/ml) was added to all wells except negative controls, to which FGF (20 ng/ml) was added instead. Negative controls and T3-alone were included in each assay plate. After incubation at 37° C. for 72 h, cells were fixed, washed and stained similar to 96-well OPC assay protocol, although all the washing steps were performed using a Biotek EL406 Microplate Washer Dispenser (Biotek) equipped with a 96-well aspiration manifold. Cells were stained with DAPI (Sigma; 1 μg/ml) and MBP antibody (Abcam, ab7349; 1:100). Plates were imaged on the Operetta High Content Imaging and Analysis system (PerkinElmer) and a set of 4 fields captured from each well resulting in an average of 700 cells being scored per well. Analysis was performed as in High-Content Imaging and Analysis, above. All plates for the primary screen were processed and analyzed simultaneously to minimize variability. Molecules causing more than 20% reduction in nuclear count relative to DMSO control wells were removed from consideration, and hits were called on the basis of largest fold-increase in percentage of MBP+ oligodendrocytes relative to DMSO controls within the same plate.

For a further series, the system named is OPCs. Put plainly: GC/MS-based sterol profiling in OPCs. The settings on record: for sterol levels / sterol intermediate accumulation in OPCs: 24 h treatment (siRNA 96 h).
[3] abbreviates: 2 μM, relative to DMSO controls of the same plate.
[4] abbreviates: 2 μM, hydrochloride monohydrate.

Take `CC(C)CCC[C@@H](C)[C@H]1CC=C2C3=C(CC[C@@]21C)[C@@]1(C)CCC(O)CC1CC3` (stereo partly drawn) [14-dehydrozymostenol, cholesta-8,14-dien-3-ol]: in the series with EpiSC-derived OPCs [1], the “formation of MBP+ oligodendrocytes from OPCs” value (“formation … from OPCs” for short) is “enhanced the formation of MBP+ oligodendrocytes”.
With `c1ccc(-c2ccc(C(c3ccccc3)n3ccnc3)cc2)cc1` (stereo not drawn) [Bifonazole], in the series on EpiSC-derived OPCs [2] (2 μM), the “cell viability (% relative to DMS0)” value is 123.69% and the “% 0ligos” value is 40.98%. The fold induction at 2 µM in the series with EpiSC-derived OPCs [2] (setting [3]) was determined as 4.59.
On the same counts, the results for `Clc1ccc(CCC(Cn2ccnc2)Sc2c(Cl)cccc2Cl)cc1` (stereo not drawn) [Butoconazole nitrate] are 122.03%, 46.85% and 5.25.
For the compound `CN1CCC[C@@H]1CCO[C@](C)(c1ccccc1)c1ccc(Cl)cc1` [Clemastine fumarate], the “sterol levels / sterol intermediate accumulation in OPCs” value in the series with OPCs was “induced accumulation of zymostenol and zymosterol and decreased basal sterol levels”. Besides, the “% 0ligos” value in the series on EpiSC-derived OPCs [2] (2 μM) stood at 20.49%. The “oligodendrocyte formation in combination with ketoconazole” value in the series with EpiSC-derived OPCs [1] (ketoconazole 2.5 μM (maximally effective dose)) is on record as “did not enhance differentiation above levels seen for ketoconazole alone”.
As for `Clc1ccc(C(Cn2ccnc2)OCc2ccc(Sc3ccccc3)cc2)c(Cl)c1` (stereo not drawn) [Fenticonazole Nitrate], in the series with EpiSC-derived OPCs [2] (2 μM), the “cell viability (% relative to DMS0)” value turned out to be 103.63% and the “% 0ligos” value came to 35.66%. Also, in the series on EpiSC-derived OPCs [2] (setting [3]), the fold induction at 2 µM was found to be 4.
Take `C[C@]12CC[C@@H]3c4ccc(O)cc4C[C@@H](CCCCCCCCC[S+]([O-])CCCC(F)(F)C(F)(F)F)[C@H]3[C@@H]1CC[C@@H]2O` (stereo partly drawn) [Fulvestrant]: the “enzyme inhibited in OPCs as indicated by sterol profile” value in the series with OPCs (24 h) was “targeted CYP51”. Besides, in the series with EpiSC-derived OPCs [2] (2 μM), the “cell viability (% relative to DMS0)” value is on record as 139.42% and the “% 0ligos” value stood at 18.21%. Further, in the series on EpiSC-derived OPCs [2] (setting [3]), the fold induction at 2 µM was 3.83.
For the compound `Cl.O[Si](CCCN1CCCCC1)(c1ccc(F)cc1)C1CCCCC1` (stereo not drawn) [Hexahydro-sila-difenidol hydrochloride, p-fluoro analog], the “% 0ligos” value in the series with EpiSC-derived OPCs [2] (2 μM) is 26.76%. Moreover, the “fold-change in % MBP + oligodendrocytes” value in the series on EpiSC-derived OPCs [2] (setting [3]) was 3.49.
With `Cl.Clc1ccc(N2CCN(Cc3c[nH]c4ncccc34)CC2)cc1` [L-745,870 hydrochloride], in the series on EpiSC-derived OPCs [2] (2 μM), the “% 0ligos” value is 32.61%.
For the compound `Cc1cc(Nc2cc(CN3CCOCC3)c3nc(C)c(Cc4ccc(Cl)cc4F)n3n2)n[nH]1` [LY2784544], in the series on EpiSC-derived OPCs [2] (2 μM), the “cell viability (% relative to DMS0)” value is listed as 87.93% and the “% 0ligos” value was found to be 28.75%. Besides, in the series on EpiSC-derived OPCs [2] (setting [3]), the fold induction at 2 µM worked out at 3.62.
On the same counts, the results for `FC(F)(F)c1ccc(/C=C/c2nc(COc3ccc(CCCCn4ccnn4)cc3)co2)cc1` [Mubritinib (TAK 165), Mubritinib] are 142.71%, 31.45% and 3.95.
Take `N=C(N)c1ccc(OCCCCCOc2ccc(C(=N)N)cc2)cc1` [Pentamidine isethionate]: in the series with EpiSC-derived OPCs [2] (2 μM), the “cell viability (% relative to DMS0)” value is on record as 108.75% and the “% 0ligos” value was found to be 41.29%. Moreover, in the series with EpiSC-derived OPCs [2] (setting [3]), the fold induction at 2 µM was 4.42.
On the same counts, the results for `CCCCOc1ccc(OCCCN2CCOCC2)cc1` [Pramoxine HCl] are 113.08%, 32.98% and 3.89.
In the case of `O=C(C1CCCCC1)N1CC(=O)N2CCc3ccccc3C2C1` (stereo not drawn) [Praziquantel], in the series with EpiSC-derived OPCs [2] (2 μM), the “cell viability (% relative to DMS0)” value came out at 109.81% and the “% 0ligos” value came out at 33.24%. Besides, the fold induction at 2 µM in the series with EpiSC-derived OPCs [2] (setting [3]) came to 3.72.
On the same counts, the results for `CCc1nc(N)nc(N)c1-c1ccc(Cl)cc1` [Pyrimethamine] are 91.11%, 43.87% and 4.92.
On to `O=C(c1ccc(OCCN2CCCCC2)cc1)c1c(-c2ccc(O)cc2)sc2cc(O)ccc12` [Raloxifene HCl], for which the “cell viability (% relative to DMS0)” value in the series on EpiSC-derived OPCs [2] (2 μM, HCl) turned out to be 114.37%; in the series on EpiSC-derived OPCs [2] (2 μM, listed as Raloxifene hydrochloride, HCl), 126.07%. In addition, in the series on EpiSC-derived OPCs [2] (setting [3]), the fold induction at 2 µM was 4.8.
Regarding `Cc1nnc(C(=O)NC(C)(C)c2nc(C(=O)NCc3ccc(F)cc3)c(O)c(=O)n2C)o1` [Raltegravir (MK-0518), Raltegravir], in the series with EpiSC-derived OPCs [2] (2 μM), the “cell viability (% relative to DMS0)” value came to 115.85% and the “% 0ligos” value is reported as 38.02%. For the same compound, the fold induction at 2 µM with EpiSC-derived OPCs [2] was found to be 4.26.
Consider `Cc1cc(NC(=O)Nc2ccc(N(C)C)cc2)c2cc(F)cc(F)c2n1` [SB408124], for which, in the series with EpiSC-derived OPCs [2] (2 μM), the “cell viability (% relative to DMS0)” value came to 106.19% and the “% 0ligos” value was 39.63%. Also, the “fold-change in % MBP + oligodendrocytes” value with EpiSC-derived OPCs [2] (setting [3]) worked out at 4.44.
In the case of `Clc1ccc(C(Cn2ccnc2)OCc2csc3c(Cl)cccc23)c(Cl)c1` (stereo not drawn) [Sertaconazole nitrate], in the series on EpiSC-derived OPCs [2] (2 μM), the “cell viability (% relative to DMS0)” value is 134.49% and the “% 0ligos” value is on record as 39.38%. The fold induction at 2 µM with EpiSC-derived OPCs [2] (setting [3]) was determined as 5.23.
As to `Clc1ccc(CSC(Cn2ccnc2)c2ccc(Cl)cc2Cl)cc1` (stereo not drawn) [Sulconazole Nitrate], in the series with EpiSC-derived OPCs [2] (2 μM), the “cell viability (% relative to DMS0)” value is listed as 104.84% and the “% 0ligos” value is 37.57%. Also, the fold induction at 2 µM in the series with EpiSC-derived OPCs [2] (setting [3]) worked out at 4.44.
On to `CCN(CC)CCCCCCCCOC(=O)c1cc(OC)c(OC)c(OC)c1.Cl` [TMB-8 hydrochloride], for which, in the series on EpiSC-derived OPCs [2] (2 μM), the “cell viability (% relative to DMS0)” value is recorded as 139.42% and the “% 0ligos” value came to 18.47%. In addition, the “fold-change in % MBP + oligodendrocytes” value in the series on EpiSC-derived OPCs [2] (setting [3]) stood at 3.89.
For `O=C1Cc2cc(CCN3CCN(c4nsc5ccccc45)CC3)c(Cl)cc2N1` [Ziprasidone HCl], in the series on EpiSC-derived OPCs [2] (2 μM, HCl), the “% 0ligos” value is given as 34.10% and the “cell viability (% relative to DMS0)” value is listed as 147.64%. In the series with EpiSC-derived OPCs [2] (setting [3]), the fold induction at 2 µM is 4.68.
As to `O=C1Cc2cc(CCN3CCN(c4nsc5ccccc45)CC3)c(Cl)cc2N1` [Ziprasidone hydrochloride monohydrate], in the series with EpiSC-derived OPCs [2] (setting [4]), the “% 0ligos” value was 32.78% and the “cell viability (% relative to DMS0)” value was determined as 116.11%. Besides, the “fold-change in % MBP + oligodendrocytes” value in the series with EpiSC-derived OPCs [2] (2 μM, relative to DMSO controls of the same plate, hydrochloride monohydrate) turned out to be 3.71.
As to `C=C(c1ccc(C(=O)O)cc1)c1cc2c(cc1C)C(C)(C)CCC2(C)C` [bexarotene, Bexarotene], the “sterol levels / sterol intermediate accumulation in OPCs” value in the series with OPCs is “minimal effects on sterol levels”.
With `CC(C)CCC[C@@H](C)[C@H]1CC[C@H]2[C@@H]3CC=C4C[C@@H](O)CC[C@]4(C)[C@H]3CC[C@]12C` [cholesterol, Cholesterol], the “formation … from OPCs” value in the series with EpiSC-derived OPCs [1] was “ineffective”.
Still for that read-out and setting: the same measure for `CC(C)=CCC[C@@H](C)[C@H]1CC[C@@]2(C)C3=C(CC[C@]12C)[C@@]1(C)CC[C@H](O)C(C)(C)[C@@H]1CC3` [lanosterol, Lanosterol]: “enhanced formation of MBP+ oligodendrocytes in a dose-responsive fashion”.
In the case of `N[C@@H](Cc1cc(I)c(Oc2ccc(O)c(I)c2)c(I)c1)C(=O)O` [liothyronine, Liothyronine], the “sterol levels / sterol intermediate accumulation in OPCs” value in the series on OPCs was “minimal effects on sterol levels”.
`CC(C)CCC[C@@H](C)[C@H]1CC[C@H]2C3=C(CC[C@]12C)[C@@]1(C)CC[C@H](O)C[C@@H]1CC3` [zymostenol, Zymostenol]: the “formation … from OPCs” value with EpiSC-derived OPCs [1] is recorded as “enhanced the formation of MBP+ oligodendrocytes”.
On to (±)-Vesamicol, for which, in the series on EpiSC-derived OPCs [2] (2 μM), the “cell viability (% relative to DMS0)” value was found to be 112.02% and the “% 0ligos” value is reported as 34.23%. The “fold-change in % MBP + oligodendrocytes” value in the series with EpiSC-derived OPCs [2] (setting [3]) is on record as 3.87.
On the same counts, the results for Varenicline tartrate are 144.02%, 22.86% and 4.81.
As to lsoconazole nitrate, the “% 0ligos” value in the series on EpiSC-derived OPCs [2] (2 μM) is recorded as 53.25%. Also, in the series with EpiSC-derived OPCs [2] (setting [3]), the “fold-change in % MBP + oligodendrocytes” value worked out at 6.70.
